Laboratory results taken from patent US20240270762A1, “PENICILLIN-BINDING PROTEIN INHIBITORS” (priority 2021, published 2024).

The compounds below were run against T1, PBP3 from Acinetobacter baumannii (ATCC 19606) (Acinetobacter baumannii, UniProt A0ABX6CK25) (assay: Bocillin-FL fluorescence polarization competition binding, A. baumannii PBP3). Conditions: fluorescence polarization competition binding assay using Bocillin-FL; read-out: A. baumannii PBP3 Potency.
T1 sequence (A0ABX6CK25 64-610): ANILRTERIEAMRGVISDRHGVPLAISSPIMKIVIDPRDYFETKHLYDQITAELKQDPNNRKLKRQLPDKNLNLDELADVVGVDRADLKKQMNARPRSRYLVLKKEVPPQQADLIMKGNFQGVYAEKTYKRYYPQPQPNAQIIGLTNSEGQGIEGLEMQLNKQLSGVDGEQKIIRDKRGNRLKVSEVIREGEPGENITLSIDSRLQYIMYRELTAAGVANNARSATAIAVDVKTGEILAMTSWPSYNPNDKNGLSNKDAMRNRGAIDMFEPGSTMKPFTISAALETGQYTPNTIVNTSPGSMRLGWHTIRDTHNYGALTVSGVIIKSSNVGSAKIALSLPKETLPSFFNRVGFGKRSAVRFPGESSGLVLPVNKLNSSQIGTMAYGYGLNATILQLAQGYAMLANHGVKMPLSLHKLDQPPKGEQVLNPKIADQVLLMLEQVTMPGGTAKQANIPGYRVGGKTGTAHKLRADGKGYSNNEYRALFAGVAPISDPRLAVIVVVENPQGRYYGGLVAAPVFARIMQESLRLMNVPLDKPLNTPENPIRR
Summary of the method: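 Purified PBPs pre-incubated with inhibitor (E. coli PBP3 1.5 μM, 30 min; P. aeruginosa PBP3 0.75 μM, A. baumannii PBP1a 1 μM and PBP3 0.2 μM, 15 min), then Bocillin-FL 0.1 μM (0.05 μM for PBP1a) added; FP read up to 60 min. EC50 = concentration halving bound Bocillin-FL.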

Row | SMILES | IC50
1 | O=C(O)c1c(F)ccc2c1OB(O)[C@@H](NC(=O)[C@H](NC(=O)N1CCN(C3CCN(C(=O)c4cc(O)cc(F)c4)CC3)C1=O)c1cc(F)c(O)c(O)c1Cl)C2 (single isomer, unassigned) [Example 436] | < 10 µM
2 | O=C(NCCS(=O)(=O)N1CCN(C(=O)N[C@@H](C(=O)N[C@H]2Cc3ccc(F)c(C(=O)O)c3OB2O)c2ccc(P(=O)(O)O)cc2)C1=O)c1ccc(O)c(O)c1Cl (single isomer, unassigned) [Example 168] | < 10 µM
3 | O=C(O)c1c(F)ccc2c1OB(O)[C@@H](NC(=O)[C@H](NC(=O)N1CCN(C3CCN(C(=O)Nc4c(F)ccc(O)c4Cl)CC3)C1=O)c1cc(F)c(O)c(O)c1Cl)C2 (single isomer, unassigned) [Example 455] | < 10 µM
4 | O=C(O)c1c(F)ccc2c1OB(O)[C@@H](NC(=O)[C@H](NC(=O)N1CCN(C3CCN(C(=O)Nc4cccc(O)c4F)CC3)C1=O)c1cc(F)c(O)c(O)c1Cl)C2 (single isomer, unassigned) [Example 446] | < 10 µM
5 | O=C(O)c1c(F)ccc2c1OB(O)[C@@H](NC(=O)[C@H](NC(=O)N1CCN(Cc3ccc(O)c(O)c3Cl)C(=O)C1=O)c1ccc(P(=O)(O)O)cc1)C2 (single isomer, unassigned) [Example 160] | < 10 µM
6 | O=C(O)c1c(F)ccc2c1OB(O)[C@@H](NC(=O)[C@H](NC(=O)N1CCN(C3CCN(C(=O)c4cccnc4)CC3)C1=O)c1cc(F)c(O)c(O)c1Cl)C2 [Example 460, (R)-3-((R)-2-(2-chloro-5-fluoro-3,4-dihydroxyphenyl)-2-(3-(1-nicotinoylpiperidin-4-yl)-2-oxoimidazolidine-1-carboxamido)acetamido)-7-fluoro-2-hydroxy-3,4-dihydro-2H-benzo[e][1,2]oxaborinine-8-carboxylic acid] | < 10 µM
7 | O=C(O)c1c(F)ccc2c1OB(O)[C@@H](NC(=O)[C@H](NC(=O)N1CCN(Cc3ccc(O)c(O)c3Cl)C(=O)C1=O)c1ccc(P(=O)(O)O)c(F)c1F)C2 [Example 166, (R)-3-((R)-2-(4-(2-chloro-3,4-dihydroxybenzyl)-2,3-dioxopiperazine-1-carboxamido)-2-(2,3-difluoro-4-phosphonophenyl)acetamido)-7-fluoro-2-hydroxy-3,4-dihydro-2H-benzo[e][1,2]oxaborinine-8-carboxylic acid] | < 10 µM
8 | O=C(O)c1c(F)ccc2c1OB(O)[C@@H](NC(=O)[C@@H](NC(=O)N1CCN(C3CCN(C(=O)c4ccc(O)cc4)CC3)C1=O)c1cc(F)c(O)c(O)c1Cl)C2 (single isomer, unassigned) [Example 462] | < 10 µM
